Source: BigSolDB 2.1

Nc1cc(Cl)ccc1[N+](=O)[O-]
solubility (mole fraction)
Conditions	283.15 K	288.15 K	293.15 K	298.15 K	303.15 K	308.15 K	313.15 K	318.15 K	323.15 K
in 2-butanone	0.141	0.149	0.164	0.173	0.187	0.203	0.218	0.234	0.252
in acetone	0.126	0.141	0.152	0.165	0.183	0.2	0.219	0.242	0.262
in acetonitrile	0.0303	0.036	0.0428	0.0519	0.0633	0.0751	0.0945	0.11	0.135
in ethanol	0.0164	0.0184	0.0215	0.0243	0.0273	0.0317	0.0373	0.0441	0.0497
in ethyl acetate	0.0983	0.107	0.117	0.133	0.144	0.158	0.174	0.193	0.24
in isobutanol	0.0116	0.0129	0.0154	0.0185	0.0219	0.0259	0.0308	0.0361	0.0444
in isopropanol	0.0146	0.017	0.0197	0.0232	0.0267	0.0321	0.0372	0.0451	0.0539
in methanol	0.0104	0.0122	0.0142	0.0164	0.019	0.0235	0.027	0.0326	0.0374
in methyl acetate	0.101	0.108	0.12	0.133	0.147	0.162	0.178	0.192	0.214
in n-butanol	0.0182	0.0209	0.0246	0.0283	0.0311	0.0358	0.0426	0.0481	0.0553
in n-propanol	0.0161	0.0184	0.0214	0.0246	0.0284	0.0315	0.0373	0.0452	0.0517
in water	5.45e-06	9.54e-06	1.22e-05	1.77e-05	2.18e-05	2.73e-05	3.53e-05	4.25e-05	4.78e-05
